Results as given in PubChem BioAssay AID330 (DTP/NCI, 2004).
Values joined by “and” are separate entries in the source; they are usually repeats but may differ in a detail not shown here. Identical values can stand only once. Toxic doses and inconclusive results are not listed. Rule for the calls: active = survival T/C of 150% or more; inactive = T/C below 125% in these data.

System: P388 leukemia ip, CD2F1 mice, survival T/C
Assay: NCI In Vivo Anticancer Drug Screen. Data for tumor model P388 Leukemia (intraperitoneal) in CD2F1 (CDF1) mice
Conditions: endpoint: median survival time, higher = longer survival
Method in brief: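 Mice carrying the transplanted tumor received test compound or vehicle. Survival was recorded in each group, and the value is the treated-group measurement divided by that of the vehicle-treated control group.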

[1] = dose: 50.0 mg/kg/injection, schedule: Q01DX005 (ip), vehicle: saline with Tween-80
[2] = dose: 100.0 mg/kg/injection, schedule: Q01DX005 (ip), vehicle: saline with Tween-80
[3] = dose: 200.0 mg/kg/injection, schedule: Q01DX005 (ip), vehicle: saline with Tween-80
[4] = dose: 50.0 mg/kg/injection, schedule: Q01DX009 (ip), vehicle: saline with Tween-80
[5] = dose: 100.0 mg/kg/injection, schedule: Q01DX009 (ip), vehicle: saline with Tween-80
[6] = dose: 200.0 mg/kg/injection, schedule: Q01DX009 (ip), vehicle: saline with Tween-80
[7] = dose: 50.0 mg/kg/injection, schedule: Q01DX005 (ip), vehicle: Klucel (hydroxypropylcellulose) (HPC)
[8] = dose: 100.0 mg/kg/injection, schedule: Q01DX005 (ip), vehicle: Klucel (hydroxypropylcellulose) (HPC)
[9] = dose: 200.0 mg/kg/injection, schedule: Q01DX005 (ip), vehicle: Klucel (hydroxypropylcellulose) (HPC)
[10] = dose: 60.0 mg/kg/injection, schedule: Q01DX005 (ip), vehicle: Klucel (hydroxypropylcellulose) (HPC)
[11] = dose: 120.0 mg/kg/injection, schedule: Q01DX005 (ip), vehicle: Klucel (hydroxypropylcellulose) (HPC)
[12] = dose: 240.0 mg/kg/injection, schedule: Q01DX005 (ip), vehicle: Klucel (hydroxypropylcellulose) (HPC)
[13] = dose: 100.0 mg/kg/injection, schedule: Q04DX002 (ip), vehicle: saline with Tween-80

Measured: T/C

CN1CCC(O)CC1=O (stereo not drawn)
inactive: [1] 104 % of control | [2] 98 % of control | [3] 101 % of control

CN(C)c1ccc(/C=N/N=C2\C(=O)Nc3c(Cl)cc(Cl)cc32)cc1
inactive: [4] 95 % of control | [5] 97 % of control | [6] 95 % of control

CNC(=O)OCC1=CC(=O)C(OC)=C(OC)C1=O
inactive: dose: 7.5 mg/kg/injection, schedule: Q01DX005 (ip), vehicle: saline with Tween-80 104 % of control | dose: 15.0 mg/kg/injection, schedule: Q01DX005 (ip), vehicle: saline with Tween-80 100 % of control | dose: 30.0 mg/kg/injection, schedule: Q01DX005 (ip), vehicle: saline with Tween-80 100 % of control

O=C(N/N=C\c1c(O)ccc2ccccc12)C1CC1
inactive: [7] 103 % of control | [8] 97 % of control | [9] 101 % of control

Cc1cc(Oc2cnc(=O)[nH]c2)cs1
inactive: [10] 100 % of control | [11] 94 % of control | [12] 94 % of control

CCOC(=O)c1cncc(Br)c1
inactive: [1] 113 % of control | [2] 103 % of control | [3] 113 % of control

CNCCc1c(C2[C@@H]3[C@H](C=C(C)CC3(C)C)[C@]34Nc5ccccc5[C@]23CCN4C)[nH]c2ccccc12 (stereo partly drawn)
inactive: dose: 4.0 mg/kg/injection, schedule: Q01DX009 (ip), vehicle: saline 100 % of control | dose: 8.0 mg/kg/injection, schedule: Q01DX009 (ip), vehicle: saline 94 % of control | dose: 16.0 mg/kg/injection, schedule: Q01DX009 (ip), vehicle: saline 103 % of control | dose: 32.0 mg/kg/injection, schedule: Q01DX009 (ip), vehicle: saline 100 % of control

COc1ccc2nc3cc(Cl)ccc3c(NCCCNCCCCNCCCNc3c4ccc(Cl)cc4nc4ccc(OC)nc34)c2n1
inactive: dose: 0.93 mg/kg/injection, schedule: Q01DX005 (ip), vehicle: saline with Tween-80 100 % of control | dose: 1.87 mg/kg/injection, schedule: Q01DX005 (ip), vehicle: saline with Tween-80 106 % of control | dose: 3.75 mg/kg/injection, schedule: Q01DX005 (ip), vehicle: saline with Tween-80 121 % of control

COc1ccc(/C=N\N=C(/[O-])c2ccc(Cl)cc2)cc1.COc1ccc(/C=N\N=C(/[O-])c2ccc(Cl)cc2)cc1.[Ni+2].[OH3+].[OH3+]
inactive: [13] 92 % of control

O=C(Nc1ccc(Cl)cc1)Nc1ccc(Cl)nn1
inactive: dose: 3.12 mg/kg/injection, schedule: Q04DX002 (ip), vehicle: Klucel (hydroxypropylcellulose) (HPC) 101 % of control | dose: 6.25 mg/kg/injection, schedule: Q04DX002 (ip), vehicle: Klucel (hydroxypropylcellulose) (HPC) 102 % of control | dose: 12.5 mg/kg/injection, schedule: Q04DX002 (ip), vehicle: Klucel (hydroxypropylcellulose) (HPC) 98 % of control | dose: 25.0 mg/kg/injection, schedule: Q04DX002 (ip), vehicle: Klucel (hydroxypropylcellulose) (HPC) 115 % of control | dose: 50.0 mg/kg/injection, schedule: Q04DX002 (ip), vehicle: Klucel (hydroxypropylcellulose) (HPC) 90 % of control | dose: 100.0 mg/kg/injection, schedule: Q04DX002 (ip), vehicle: Klucel (hydroxypropylcellulose) (HPC) 88 % of control and 95 % of control

CC(C)(O)C1CCCCC1Cl (stereo not drawn)
inactive: [1] 104 % of control | [2] 107 % of control | [3] 104 % of control

CN=C(N)N/N=C(\C)c1ccc2c(c1)Cc1ccccc1-2
inactive: dose: 25.0 mg/kg/injection, schedule: Q04DX002 (ip), vehicle: saline with Tween-80 122 % of control

CC(SSc1ccc(C(C)(C)C)cc1)c1ccccc1 (stereo not drawn)
inactive: [7] 96 % of control | [8] 104 % of control | [9] 109 % of control

C1=CCN(c2nc(N3CCOCC3)nc(N3CCCc4ccccc43)n2)CC1
inactive: dose: 50.0 mg/kg/injection, schedule: Q01DX009 (ip), vehicle: saline 99 % of control | dose: 100.0 mg/kg/injection, schedule: Q01DX009 (ip), vehicle: saline 97 % of control | dose: 200.0 mg/kg/injection, schedule: Q01DX009 (ip), vehicle: saline 99 % of control

O=C1NNC(=O)C2(CCC(O)C2)c2ccncc21 (stereo not drawn)
inactive: dose: 3.75 mg/kg/injection, schedule: Q01DX005 (ip), vehicle: saline 105 % of control | dose: 7.5 mg/kg/injection, schedule: Q01DX005 (ip), vehicle: saline 92 % of control | dose: 15.0 mg/kg/injection, schedule: Q01DX005 (ip), vehicle: saline 96 % of control | dose: 30.0 mg/kg/injection, schedule: Q01DX005 (ip), vehicle: saline 105 % of control

COC(=O)c1c(C(=O)Cc2cc3c(cc2CCN(C)C)OCO3)ccc(OC)c1OC
inactive: dose: 12.5 mg/kg/injection, schedule: Q01DX001 (ip), vehicle: saline + alcohol 99 % of control | dose: 25.0 mg/kg/injection, schedule: Q01DX001 (ip), vehicle: saline + alcohol 100 % of control | dose: 50.0 mg/kg/injection, schedule: Q01DX001 (ip), vehicle: saline + alcohol 101 % of control

C[C@@]1(CO)CCc2c(c3ccccc3oc2=O)O1
inactive: dose: 60.0 mg/kg/injection, schedule: Q01DX005 (ip), vehicle: saline with Tween-80 94 % of control | dose: 120.0 mg/kg/injection, schedule: Q01DX005 (ip), vehicle: saline with Tween-80 92 % of control | dose: 240.0 mg/kg/injection, schedule: Q01DX005 (ip), vehicle: saline with Tween-80 90 % of control

CCCCC[C@@H]1CCCC2C1CC[C@@H](CCCCCI)N2C(=O)OCC(Cl)(Cl)Cl (stereo partly drawn)
inactive: [13] 100 % of control | dose: 200.0 mg/kg/injection, schedule: Q04DX002 (ip), vehicle: saline with Tween-80 100 % of control | dose: 400.0 mg/kg/injection, schedule: Q04DX002 (ip), vehicle: saline with Tween-80 105 % of control

Cc1cccc(N2CC3CC4C=CC3(C2)O4)c1 (stereo not drawn)
inactive: [10] 96 % of control | [11] 96 % of control | [12] 96 % of control

COC(=S)SSC(=S)NCC(C)NC(=S)SSC(=S)OC (stereo not drawn)
inactive: [7] 103 % of control | [8] 103 % of control | [9] 105 % of control

CC1CC12OC(=O)N(c1cc(Cl)cc(Cl)c1)C2=O (stereo not drawn)
inactive: dose: 50.0 mg/kg/injection, schedule: Q01DX005 (ip), vehicle: saline + Tween-80 + alcohol 98 % of control | dose: 100.0 mg/kg/injection, schedule: Q01DX005 (ip), vehicle: saline + Tween-80 + alcohol 100 % of control | dose: 200.0 mg/kg/injection, schedule: Q01DX005 (ip), vehicle: saline + Tween-80 + alcohol 101 % of control

Cc1ccc(-c2nc3ccccc3c(=O)n2C(C)C)cc1
inactive: [4] 100 % of control | [5] 98 % of control | [6] 87 % of control

O=C1c2ccc(Cl)cc2-n2c1nc1ccccc1c2=O
inactive: dose: 100.0 mg/kg/injection, schedule: Q01DX001 (ip), vehicle: Klucel (hydroxypropylcellulose) (HPC) 100 % of control | dose: 200.0 mg/kg/injection, schedule: Q01DX001 (ip), vehicle: Klucel (hydroxypropylcellulose) (HPC) 93 % of control | dose: 400.0 mg/kg/injection, schedule: Q01DX001 (ip), vehicle: Klucel (hydroxypropylcellulose) (HPC) 93 % of control

Cc1ccc(/C=C/C(=O)C(C)(C)CN(C)CCN(C)C)cc1
inactive: dose: 60.0 mg/kg/injection, schedule: Q01DX005 (ip), vehicle: saline 103 % of control | dose: 120.0 mg/kg/injection, schedule: Q01DX005 (ip), vehicle: saline 98 % of control

COC(=O)c1c(C)oc2ccccc2c1=O
inactive: [7] 101 % of control | [8] 103 % of control | [9] 103 % of control

O=C(NNC(=O)c1cccnc1)Nc1cccc(Cl)c1Cl
inactive: dose: 12.5 mg/kg/injection, schedule: Q01DX009 (ip), vehicle: saline with Tween-80 104 % of control | dose: 25.0 mg/kg/injection, schedule: Q01DX009 (ip), vehicle: saline with Tween-80 100 % of control | [4] 95 % of control

O=C1CN(c2ccccc2)CC(=O)N2CCCN12
inactive: dose: 12.5 mg/kg/injection, schedule: Q01DX005 (ip), vehicle: saline with Tween-80 100 % of control | dose: 25.0 mg/kg/injection, schedule: Q01DX005 (ip), vehicle: saline with Tween-80 96 % of control | [1] 100 % of control

O=C(O)c1c(C(=O)O)c(C(=O)O)c(C(=O)O)c(C(=O)O)c1C(=O)O
inactive: dose: 25.0 mg/kg/injection, schedule: Q01DX009 (ip), vehicle: water 111 % of control | dose: 50.0 mg/kg/injection, schedule: Q01DX009 (ip), vehicle: water 106 % of control | dose: 100.0 mg/kg/injection, schedule: Q01DX009 (ip), vehicle: water 109 % of control | dose: 200.0 mg/kg/injection, schedule: Q01DX009 (ip), vehicle: water 101 % of control

Cc1cc(/C=C2\SC(=S)NC2=O)cc(C)c1O
inactive: [1] 110 % of control | [2] 94 % of control | [3] 90 % of control
